Each structure is given as a SMILES string. Read-outs that look alike come from different tables or passages of the source.

Test [1] relates to LnCAP cells. As to the kind of experiment: LnCAP gene expression. The class given is cell-based. The following applies: Homo sapiens.
Test [2] concerns orchidectomized rats. Put plainly: Testosterone induced prostate / seminal vesicle growth in delayed ORX rat model. The class given is in vivo. The text has this: Orchidectomized (ORX) and sham-operated Wistar male rats were used (orchidectomized at 8 weeks of age and allowed to waste for 4 weeks). […] Rats were randomized and placed into treatment groups (n=6) based on body weight. Route of administration for all groups except testosterone enanthate (TE was given sub-cutaneously) was oral. At the end of 2 weeks of daily rats were euthanized, weighed & tissue harvested. Levator ani, prostates, and seminal vesicles were collected from each animal. Results are plotted as means±SE.

[3] abbreviates: ORX + TE, 1 mg/kg/d (control group itself).

Take `C[C@]1(O)CC[C@H]2[C@@H]3CCC4=CC(=O)CCC4=C3C=C[C@@]21C` [R1881]: the EC50 worked out at 0.035 nM in test [1] (read-out: LnCAP Gene Expression EC50 (nM) AR), 0.37 nM in test [1] (read-out: LnCAP Gene Expression EC50 (nM) CLUSTERIN) and 0.034 nM in test [1] (read-out: LnCAP Gene Expression EC50 (nM) PSA).
With `CCCCCCC(=O)O[C@H]1CC[C@H]2[C@@H]3CCC4=CC(=O)CC[C@]4(C)[C@H]3CC[C@]12C` [TE, Testosterone Enanthate, reference compound], in test [2] (setting [3]), the “prostate weights, Abs(Dif)-LSD vs ORX + TE control” value is recorded as −0.15 and the “seminal vesicle wet weights, Abs(Dif)-LSD vs ORX + TE control” value was −0.52. Further, in test [2] (ORX rat, Testosterone 1 mg/k/d alone for 2 weeks), the “prostate weight and seminal vesical weight” value is “increase in prostate weight and seminal vesical weight”.

As a reminder, the EC50 is the concentration needed to bring the measured effect to its halfway point.

Source of the values: patent US20180185347A1, “TETRAHYDROCYCLOPENTA[B]INDOLE COMPOUNDS AND PHOSPHODIESTERASE INHIBITORS FOR THE TREATMENT OF THE SIGNS AND SYMPTOMS OF BHP” (Transition Therapeutics (Ireland 2) Limited, priority 2016, published 2018).
